According to patent US10421989B2, “Methods and reagents for riboswitch analysis” (CORNELL UNIVERSITY, priority 2014, dated 2019):
Where “and” joins values, the source holds several entries; their conditions need not be identical. Identical values can stand only once.

Tests used:
[1] = target: dye-labeled TPP riboswitch (WT/24-68); assay: smFRET titration of TPP, high-FRET state occupancy; type: binding, E. coli; details: TPP 0 to 100 μM, 2 mM Mg2+; fit y=ymax(x/x+Kd); read-out: estimated Kd (apparent dissociation constant)
Description: FIG. 20. Former tpp The dye-labeled TPP riboswitch (WT/24-68) binds TPP with nanomolar affinity. The affinity of TPP for the WT/24-68 labeled construct was estimated by titrating TPP from 0 to 100 μM in the presence of 2 mM Mg^2+, and quantifying the change in population of fully folded riboswitch molecules (high-FRET state occupancy) as a function of TPP concentration using single-molecule FRET measurements. Shown (black squares) is the average high-FRET state occupancy value (total area under the curve) obtained by fitting population FRET histograms to three Gaussian distributions (low-, intermediate- and high-FRET) over three independent experiments. Each value was normalized to the percent high-FRET state occupancy observed at […]. […]
smFRET data were acquired using a prism-based total internal reflection microscope, where the biotinylated TPP riboswitch was surface immobilized within PEG-passivated, strepatividin-coated quartz microfluidic devices. {Dave R, et al 2009} The Cy3 fluorophore was directly illuminated under 1.5 kW cm^−2 intensity at 532 nm (Laser Quantum). […] Fluorescence data were acquired using MetaMorph acquisition software (Universal Imaging Corporation) at a rate of 66.7 frames per second (15 ms integration). Fluorescence trajectories were selected from the movie files for analysis using automated image analysis software coded in Matlab (The MathWorks). […]

[2] = target: wild-type (A11AP) preQ1-II riboswitch aptamer construct; assay: 2-aminopurine fluorescence titration of preQ1 binding, wild-type aptamer; parameters: species or system Streptococcus pneumoniae R6; details: 0.5 μM RNA, 50 mM KMOPS, 100 mM KCl, Mg2+, 25° C.; 2-aminopurine at position A11
Description: (§1) FIG. 10. A11/2-Aminopurine (A11AP) fluorescence measurements of WT and ΔP3 preQ1-II riboswitch variants. (a) Secondary structure of the WT/A11AP (left) and ΔP3/A11AP (right) preQ1-II variant. (b) Qualitative fluorescence response upon Mg^2+ (4 mM) and subsequent preQ1 addition (10 μM) (λex=308 nm; detection at 372 nm). (c) Fluorescence emission spectra (λex=308 nm) from 320 to 480 nm for each preQ1 concentration. (d) Normalized 2AP fluorescence intensity plotted as a function of preQ1 concentrations, changes in fluorescence (F-F0) were normalized to the maximum fluorescence measured in the absence of ligands. […]
(§2) Experiments were measured on a Cary Eclipse spectrophotometer (Varian) equipped with a peltier block and a magnetic stirring device. […] Spectra were recorded from 320 to 500 nm with excitation wavelength 308 nm and scan rate of 120 nm/min. The apparent binding constants KD were determined by following the increase in fluorescence after each titration step via integration of the area between 330 and 450 nm. Changes in fluorescence (F-F0) were normalized to the maximum fluorescence measured in the absence of ligand. Measurements for each titration step was repeated at least two times and the mean of the normalized fluorescence intensity was plotted against ligand concentration. The final KD value is the arithmetic mean, determined from two to three independent titration experiments.

[3] = target: truncated (ΔP3/A11AP) preQ1-II riboswitch aptamer construct; assay: 2-aminopurine fluorescence titration of preQ1 binding, truncated aptamer; parameters: species or system Streptococcus pneumoniae R6
Description: as §1, §2

Structure (SMILES)	Kd [1]	Kd [2]	Kd ([3]; 0.5 μM RNA, 50 mM KMOPS, 100 mM KCl, Mg2+, 25° C., 2-aminopurine at position A11)	decrease in affinity compared to the wild-type (A11AP) aptamer construct ([3]; truncated construct vs wild-type)
Cc1ncc(C[n+]2csc(CCO[P@](=O)(O)OP(=O)(O)O)c2C)c(N)n1 [TPP, thiamine pyrophosphate]	~100 nM and 115 nM			
NCC1C=Nc2nc(N)[nH]c(=O)c21 (stereo not shown) [preQ1, 7-aminomethyl-7-deazaguanine]		430 ± 10 nM	4200 ± 100 nM	10 fold
